Experiments:
[1] = system: FOXO activity in Human Umbilical Vein Endothelial Cells (HUVEC); assay: Computational FOXO model on HUVEC with 4OHT-inducible FOXO3.A3-ER (GSE16573); assay type: cell-based
Text: A. The Bayesian network structure used as a basis for the modeling approach shown as a simplified model of the transcriptional program of a cellular signal transduction pathway, consisting of three types of nodes: transcription factor, target gene and microarray probe sets corresponding to target genes. B. Training of the computational FOXO3 model on a public GEO dataset GSE16573, consisting of Affymetrix microarray 2.0 Plus expression data from HUVEC containing a 4OHT-inducible FOXO3.A3-ER expression construct. Each bar represents a sample analysis result.
The probabilistic relations in the Bayesian network model were made quantitative using experimental data to enable quantitative reasoning on new experimental samples.

[2] = system: FOXO3 activity in EGFR-mutant HCC827 lung cancer cell line; assay: Computational FOXO model on drug-treated HCC827 cells (GSE51212); details: HCC827 treated with drug vs untreated (FOXO scored inactive); public dataset GSE51212
Procedure: (§1) Public datasets from samples that were treated with drugs targeting growth factor pathways. A. GEO GSE51212. […] B. GEO GSE30516 dataset.
(§2) Once the model has been calibrated, it could be used on microarray (Affymetrix HG-U133Plus2.0) data of new tumor samples by entering probeset measurements as observations in the bottom layer, and inferring backwards in the model the activity probability of the FOXO3 transcription factor. The model was frozen and applied to microarray data of cell line and tissue samples by entering probeset measurements as observations into the model, inferring backwards FOXO transcription factor activity score as the log-2 value of the FOXO transcription factor odds p/(1−p).
(§3) Parameters enforcing relationships between the FOXO transcription complex and target genes were manually set to improve generalization behavior of the model across different tissue types (11). Parameters describing relationships between target genes and their respective probe sets were calibrated on a public data set of Human Umbilical Vein Endothelial Cells (HUVEC) carrying inducible constitutively active FOXO3.A3-ER, and a threshold for FOXO-activity was set (GSE16573) (20).

[3] = system: FOXO activity in BT20 (triple-negative breast cancer cell line); assay: Computational FOXO model on Erlotinib-treated BT20 cells (GSE30516); details: BT20 treated with Erlotinib; public dataset GSE30516
Procedure: as §1, §2, §3

[4] = system: FOXO activity in MCF7 (ER positive breast cancer cell line); assay: Computational FOXO model on Erlotinib-treated MCF7 cells (GSE30516); details: MCF7 treated with Erlotinib; public dataset GSE30516
Procedure: as §1, §2, §3

[5] = system: FOXO activity in MDA-MB-453 (HER2 positive breast cancer cell line); assay: Computational FOXO model on Erlotinib-treated MDA-MB-453 cells (GSE30516); details: MDA-MB-453 treated with Erlotinib; public dataset GSE30516
Procedure: as §1, §2, §3

With `CC/C(=C(\c1ccc(O)cc1)c1ccc(OCCN(C)C)cc1)c1ccccc1` [4OHT] the “FOXO activity predicted by the Bayesian model” value (“FOXO activity predicted” below) ([1]; HUVEC-FOXO3.A3-ER treated with 4OHT) was “highly active FOXO”, the “FOXO activity predicted” value ([1]; HUVECs expressing FOXO3.A3-ER-H212R (reduced DNA binding) treated with 4OHT) was “low FOXO3 activity” and the “FOXO activity predicted” value ([1]; HUVECs without construct, treated with 4OHT) was “low FOXO activity”.

`Cn1c(=O)n(-c2ccc(C(C)(C)C#N)cc2)c2c3cc(-c4cnc5ccccc5c4)ccc3ncc21` [BEZ235] was tested, and the “FOXO3 activity scored by the FOXO model” value [2] was “scored active”.

For `C#Cc1cccc(Nc2ncnc3cc(OCCOC)c(OCCOC)cc23)c1` [Erlotinib], the FOXO activity score [3] was “increased”, the FOXO activity score [4] was “increased” and the FOXO activity score [5] was “increased”.
